{"source": "patent US20220411525A1", "about": "“BCMA AS A TARGET FOR T CELL REDIRECTING ANTIBODIES IN B CELL LYMPHOMAS” (Janssen Pharmaceutica NV, priority 2021, published 2022)", "key": {"primary CLL cells [1]": {"system": "primary CLL cells", "test": "Viability of CLL cells under γ-secretase inhibition", "type": "cell-based, human", "conditions": "100 nM γ-secretase inhibitor", "description": "Viability of CLL cells was not affected by the inhibitor (FIG. 8A). No difference in BCMA levels, before or after γ-secretase inhibitor treatment, was observed between CLL samples with mutated and unmutated immunoglobulin heavy chain variable region gene (IgHV) status (FIG. 2C-D). Low but measurable mRNA levels of BCMA expression could be detected on CLL cells (FIG. 2E). Despite low BCMA detection by flow cytometry, sBCMA could be detected in supernatants of CLL cells, already after 24 h of culturing, which increased after 48 h (FIG. 2F)."}, "primary CLL cells [2]": {"system": "primary CLL cells", "test": "BCMA level by flow cytometry on primary CLL cells after γ-secretase inhibition", "type": "cell-based, human", "conditions": "100 nM", "description": "Primary CLL samples were stained for BCMA expression by flow cytometry and compared to isotype controls. […] As provided in FIG. 2A, CLL cells were cultured and basal levels of BCMA were assessed by flow cytometry and compared to isotype controls. (n=25). For FIG. 2B, CLL cells were treated for 24 or 48h with 0nM or 100 nM γ-secretase inhibitor and BCMA was assessed by flow cytometry. Values are represented as fold increase compared to medium control. (n=12-28). FIG. 2C provides basal levels of BCMA compared to isotype control among CLL patients with mutated or unmutated IgVH. (n=4-10). […] (n=4-12) The P value was calculated by Wilcoxon test (FIGS. 2A-2B), Mann Whitney test (FIGS. 2B, 2C, 2D) or paired t test (FIGS. 2E, F). […]\nFlow cytometry. […] After antibody staining, samples were washed using PBA and acquired on BD FACS Canto or LSR Fortessa flow cytometer and analysed with FlowJo v10. To quantify number of cells using flow cytometry, 123count eBeads™ Counting Beads (Thermo Fisher Scientific) according to manufacturer's instructions. BCMA molecules per cell were determined by usage of PE Phycoerythrin Fluorescence Quantitation Kit (BD Biosciences).\nBCMA characterization by flow cytometry and quantitative polymerase chain reaction. […] After 24 or 48 h BCMA was detected by flow cytometry as described above. Relative expression was calculated compared to isotype controls. […]"}}, "data": [{"smiles": "C[C@H](NC(=O)[C@@H](O)c1cc(F)cc(F)c1)C(=O)N[C@@H]1C(=O)N(C)c2ccccc2-c2ccccc21", "note": "[Ly411575]", "values": [{"measurement": "Viability of CLL cells", "setting": "primary CLL cells [1]", "result": "not affected"}, {"measurement": "BCMA level on CLL cells", "setting": "primary CLL cells [2]; 24 h", "result": "small but significant upregulation of BCMA"}, {"measurement": "BCMA level on CLL cells", "setting": "primary CLL cells [2]; 48 h, compared to 24 h", "result": "further enhanced"}]}]}
